This is an account of results in ChEMBL document CHEMBL1134520, “Potent somatostatin undecapeptide agonists selective for somatostatin receptor 1 (sst1)” (J Med Chem, 2001).

Assay [1] deals with Somatostatin receptor type 1 (Homo sapiens, UniProt P30872). Briefly: Tested for ability to bind to 20 uM thick cryostat sections of a membrane pellet of cells transfected with human cloned somatostatin (sst) receptor subtype 1.
The target of assay [2] is Somatostatin receptor type 4 (Homo sapiens, UniProt P31391). Briefly: Tested for ability to bind to 20 uM thick cryostat sections of a membrane pellet of cells transfected with human cloned somatostatin (sst) receptor subtype 4.
The target of assay [3] is Somatostatin receptor type 2 (Homo sapiens, UniProt P30874). The assay can be described thus: Tested for ability to bind to 20 uM thick cryostat sections of a membrane pellet of cells transfected with human cloned somatostatin (sst) receptor subtype 2.
Assay [4] addresses Somatostatin receptor type 3 (Homo sapiens, UniProt P32745). The assay can be described thus: Tested for ability to bind to 20 uM thick cryostat sections of a membrane pellet of cells transfected with human cloned somatostatin (sst) receptor subtype 3.
For assay [5], the target named is Somatostatin receptor type 5 (Homo sapiens, UniProt P35346). Briefly: Tested for ability to bind to 20 uM thick cryostat sections of a membrane pellet of cells transfected with human cloned somatostatin (sst) receptor subtype 5.

Bridge positions count the residues as written; N and C are the ends. Square brackets hold non-standard residues; d marks the D form. Peptide text beside a SMILES is read from it. Phe(4-CH2NHiPr) = CC(C)NCc1ccc(C[C@H](N)C(=O)O)cc1

Somatostatin receptor type 5, sequence (P35346 whole entry): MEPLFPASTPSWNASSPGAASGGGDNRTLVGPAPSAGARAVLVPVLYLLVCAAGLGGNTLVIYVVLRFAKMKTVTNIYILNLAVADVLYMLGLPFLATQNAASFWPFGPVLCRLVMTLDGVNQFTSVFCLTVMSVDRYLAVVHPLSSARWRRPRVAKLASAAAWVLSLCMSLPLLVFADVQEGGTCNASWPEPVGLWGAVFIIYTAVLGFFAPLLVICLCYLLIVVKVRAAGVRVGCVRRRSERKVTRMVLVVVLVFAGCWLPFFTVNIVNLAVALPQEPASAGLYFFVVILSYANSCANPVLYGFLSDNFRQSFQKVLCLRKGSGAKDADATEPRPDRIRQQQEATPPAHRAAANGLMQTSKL
Somatostatin receptor type 1, sequence (P30872 whole entry): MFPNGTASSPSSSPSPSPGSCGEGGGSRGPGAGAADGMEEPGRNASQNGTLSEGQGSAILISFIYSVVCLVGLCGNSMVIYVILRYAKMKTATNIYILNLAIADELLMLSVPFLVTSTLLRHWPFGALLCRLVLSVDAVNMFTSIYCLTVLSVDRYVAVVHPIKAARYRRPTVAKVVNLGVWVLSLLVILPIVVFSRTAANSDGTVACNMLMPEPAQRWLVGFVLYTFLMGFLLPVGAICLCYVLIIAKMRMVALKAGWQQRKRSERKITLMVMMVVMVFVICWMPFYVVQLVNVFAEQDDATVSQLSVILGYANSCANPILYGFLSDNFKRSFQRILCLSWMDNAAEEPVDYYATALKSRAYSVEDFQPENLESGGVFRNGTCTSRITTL
Somatostatin receptor type 2, sequence (P30874 whole entry): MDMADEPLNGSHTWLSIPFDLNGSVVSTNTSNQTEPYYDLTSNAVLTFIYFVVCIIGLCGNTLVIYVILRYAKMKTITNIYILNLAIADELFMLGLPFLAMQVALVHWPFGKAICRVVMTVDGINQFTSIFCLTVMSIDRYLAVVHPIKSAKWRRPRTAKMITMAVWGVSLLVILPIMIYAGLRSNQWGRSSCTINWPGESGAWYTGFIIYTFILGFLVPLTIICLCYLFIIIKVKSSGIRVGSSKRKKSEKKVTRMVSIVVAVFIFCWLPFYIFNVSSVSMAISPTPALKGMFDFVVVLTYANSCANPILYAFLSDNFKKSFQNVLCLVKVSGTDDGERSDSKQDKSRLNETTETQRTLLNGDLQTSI
Somatostatin receptor type 4, sequence (P31391 whole entry): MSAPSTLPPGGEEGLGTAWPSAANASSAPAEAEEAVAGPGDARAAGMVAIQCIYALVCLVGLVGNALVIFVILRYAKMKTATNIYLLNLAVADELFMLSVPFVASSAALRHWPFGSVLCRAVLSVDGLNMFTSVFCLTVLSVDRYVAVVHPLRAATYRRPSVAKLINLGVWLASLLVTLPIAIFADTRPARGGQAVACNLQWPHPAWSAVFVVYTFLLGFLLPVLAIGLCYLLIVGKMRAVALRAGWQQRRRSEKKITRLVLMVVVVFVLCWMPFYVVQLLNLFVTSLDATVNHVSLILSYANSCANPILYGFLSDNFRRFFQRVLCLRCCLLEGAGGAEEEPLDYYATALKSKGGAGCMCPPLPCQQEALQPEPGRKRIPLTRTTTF
Somatostatin receptor type 3, sequence (P32745 whole entry): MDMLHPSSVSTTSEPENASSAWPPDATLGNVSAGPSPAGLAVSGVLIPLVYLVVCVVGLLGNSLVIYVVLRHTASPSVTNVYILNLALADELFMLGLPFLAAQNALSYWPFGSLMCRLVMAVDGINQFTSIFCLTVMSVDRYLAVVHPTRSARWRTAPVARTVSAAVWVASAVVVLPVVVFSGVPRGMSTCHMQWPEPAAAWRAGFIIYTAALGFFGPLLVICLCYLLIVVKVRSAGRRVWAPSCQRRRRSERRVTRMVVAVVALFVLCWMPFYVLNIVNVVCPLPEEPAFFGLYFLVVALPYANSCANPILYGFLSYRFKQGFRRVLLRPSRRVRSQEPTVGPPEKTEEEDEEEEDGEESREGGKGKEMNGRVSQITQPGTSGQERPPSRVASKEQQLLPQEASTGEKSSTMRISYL

One may read the IC50 as the point on the concentration scale where inhibition reaches its midpoint. As to `CC(C)NCc1ccc(C[C@@H]2NC(=O)[C@@H](Cc3c[nH]c4ccccc34)NC(=O)[C@H](Cc3ccccc3)NC(=O)[C@H](Cc3ccccc3)NC(=O)[C@@H](NC(=O)[C@@H](N)Cc3ccc(O)cc3)CSSC[C@@H](C(=O)O)NC(=O)[C@H]([C@@H](C)O)NC(=O)[C@H](Cc3ccccc3)NC(=O)[C@H]([C@@H](C)O)NC2=O)cc1`, the IC50 in assay [1] is 720 nM; in assay [2], more than 1000 nM; in assay [3], more than 10 µM; in assay [4], 445 nM.

`CC(C)NCc1ccc(C[C@@H]2NC(=O)[C@@H](Cc3c[nH]c4ccccc34)NC(=O)[C@H](Cc3ccccc3)NC(=O)[C@H](Cc3ccccc3)NC(=O)[C@H](CCCCN)NC(=O)[C@H](NC(=O)[C@@H](N)Cc3ccc(O)cc3)CSSC[C@@H](C(=O)O)NC(=O)[C@H](CO)NC(=O)[C@H]([C@@H](C)O)NC(=O)[C@H](Cc3ccccc3)NC(=O)[C@H]([C@@H](C)O)NC2=O)cc1`: the figures for the IC50 in assay [2], in assay [3] and in assay [4] were more than 1000 nM, more than 10 µM and more than 1000 nM, respectively.

For the compound `CC(C)NCc1ccc(C[C@@H]2NC(=O)[C@@H](Cc3c[nH]c4ccccc34)NC(=O)[C@H](Cc3ccccc3)NC(=O)[C@@H](NC(=O)[C@@H](N)Cc3ccc(O)cc3)CSSC[C@@H](C(=O)O)NC(=O)[C@H](Cc3ccccc3)NC(=O)[C@H]([C@@H](C)O)NC2=O)cc1` (H-YCF[dW][Phe(4-CH2NHiPr)]TFC-OH; disulfide 2-8), the IC50 in assay [1] is more than 1000 nM; in assay [2], more than 1000 nM; in assay [3], more than 1 µM; in assay [4], more than 1000 nM.

On to `CC(C)NCc1ccc(C[C@@H]2NC(=O)[C@@H](Cc3c[nH]c4ccccc34)NC(=O)[C@H](Cc3ccccc3)NC(=O)[C@H](Cc3ccccc3)NC(=O)[C@@H](N)CSSC[C@@H](C(=O)O)NC(=O)[C@H](Cc3ccccc3)NC(=O)[C@H]([C@@H](C)O)NC2=O)cc1` (H-CFF[dW][Phe(4-CH2NHiPr)]TFC-OH; disulfide 1-8), for which the IC50 in assay [5] and in assay [3] was more than 10 µM each time.

For `CC(C)NCc1ccc(C[C@@H]2NC(=O)[C@@H](Cc3c[nH]c4ccccc34)NC(=O)[C@H](Cc3ccccc3)NC(=O)[C@H](Cc3ccccc3)NC(=O)[C@H](CCCCN)NC(=O)[C@@H](N)CSSC[C@@H](C(=O)O)NC(=O)[C@H](CO)NC(=O)[C@H]([C@@H](C)O)NC(=O)[C@H](Cc3ccccc3)NC(=O)[C@H]([C@@H](C)O)NC2=O)cc1` (H-CKFF[dW][Phe(4-CH2NHiPr)]TFTSC-OH; disulfide 1-11), the IC50 in assay [5] was more than 10 µM; in assay [3], more than 10 µM; in assay [4], 345 nM.

As for `CC(C)NCc1ccc(C[C@@H]2NC(=O)[C@@H](Cc3ccc4ccccc4c3)NC(=O)[C@H](Cc3ccccc3)NC(=O)[C@H](Cc3ccccc3)NC(=O)[C@H](CCCCN)NC(=O)[C@H](NC(=O)CCc3ccc(O)cc3)CSSC[C@@H](C(=O)O)NC(=O)[C@H](CO)NC(=O)[C@H]([C@@H](C)O)NC(=O)[C@H](Cc3ccccc3)NC(=O)[C@@H]([C@@H](C)O)NC2=O)cc1` (stereo in doubt; 30), the IC50 was 845 nM in assay [1], more than 1 µM in assay [5] and 750 nM in assay [4].

Take `CC(C)NCc1ccc(C[C@@H]2NC(=O)[C@@H](Cc3c[nH]c4ccccc34)NC(=O)[C@H](Cc3ccccc3)NC(=O)[C@H](Cc3ccccc3)NC(=O)[C@H](CCCCN)NC(=O)[C@@H](NC(=O)[C@@H](N)Cc3ccc(O)cc3)CSSC[C@@H](C(=O)O)NC(=O)[C@H](CO)NC(=O)[C@H]([C@@H](C)O)NC(=O)[C@H](Cc3ccccc3)NC(=O)[C@H]([C@@H](C)O)NC2=O)cc1`: the IC50 in assay [2] was more than 10000 nM; in assay [4], 713 nM.

As for `C[C@@H](O)[C@@H]1NC(=O)[C@H](CCCCN)NC(=O)[C@@H](Cc2c[nH]c3ccccc23)NC(=O)[C@H](Cc2ccccc2)NC(=O)[C@H](Cc2ccccc2)NC(=O)[C@@H](N)CSSC[C@@H](C(=O)O)NC(=O)[C@H](Cc2ccccc2)NC1=O` (H-CFF[dW]KTFC-OH; disulfide 1-8), the results for the IC50 in assay [2] and in assay [3] were 1.3 nM and 0.0438 µM, respectively.
